Ends that are not written are not given here.
Experiments:
[1] = tested on: CHA15 cells; assay: Flow cytometry of SOX1, DLK1 and LHX2 during ectodermal differentiation (Fig. 7b, Supplementary Fig. 7f); assay type: cell-based, human; parameters: unit not given here
Procedure: (§1) For CPP-conjugated peptide delivery, HeLa, 293T, and PA-1 cells were incubated with CPP-conjugated peptides or CPP-FITC at 2 μM in DMEM with 10% FBS for 12 h a day before cell harvest. hPSCs were treated with CPP-conjugated peptides at 10 μM in mTeSR Plus Medium, and the peptide-containing medium was changed every day over 10 days. The ROCK inhibitor (Tocris Bioscience, Y-27632) treated-hPSCs were dissociated into single cells using Accutase (Merck, SCR005) and differentiated into ectoderm, mesoderm, and endoderm using the STEMdiff Trilineage Differentiation Kit ([…] Technologies, 05230) following the manufacturer’s protocol. Differentiated cells treated with CPP-conjugated peptides were analysed at 0, 3, and 5 days for ectoderm and endoderm, and at 0, 3, and 4 days for mesoderm.
To evaluate the relative cell number expressing the indicated proteins, CHA15 cells with the indicated CPP-conjugated peptide were fixed with BD Cytofix Fixation Buffer (BD Biosciences Pharmingen, 554655) followed by permeabilization with 0.1% BSA/PBS solution supplemented with 10% NGS and 0.3% Triton X-100 for 1 h at 4 °C. After washing, cells were incubated with the primary antibodies (OCT4 1:1000, NANOG 1:1000, DLK1 1:1000, SOX2 1:1000, LHX2 1:1000) and then, secondary antibody, Alexa Fluor 488 (1:1000), was applied. The positive cells were determined using flow cytometry (FACSCanto, BD Pharmingen), and data was analysed using the Flow Jo-v10 software program.

[2] = tested on: hPSCs; assay: RT-qPCR of pluripotency and germ-layer markers during differentiation with CPP-peptides (Supplementary Fig. 7b-e); assay type: cell-based, human; conditions: for Difference between means (B - A) ± SEM: P8 - P1; for BMP2 mRNA level (RT-qPCR) / BMP4 mRNA level (RT-qPCR) / CDH2 mRNA level (RT-qPCR) / CXCR4 mRNA level (RT-qPCR) / SNAI1 mRNA level (RT-qPCR) / TBXT mRNA level (RT-qPCR): Fig. s7d
Procedure: as §1, with “mesoderm. […]” for “mesoderm.”
cDNA was synthesised using RevertAid Reverse Transcriptase (Thermo Fisher Scientific, EP0441) with synthesised random hexamer (Macrogen) for total RNA or stem-loop primers for miRNA. For RT-qPCR reactions, the SensiFAST SYBR No-ROX kit (Meridian Bioscience) was used according to the manufacturer’s protocol. All data analysis and visualisation were conducted using R 3.6.1 [www.r-project.org] or GraphPad Prism 10. RT primers for miRNA and RT-qPCR primer sequences are provided in Supplementary Data 6. […]
FPKM of each gene was presented f r om RNA-seq analysis. b–e hPSCs wer e treated with the indicated peptide during each germ la ye r differentiation. […]
An unpaired Student’s t-test was used for a–e. Data are presented as mean values ± SEM. All statistical test us ed wer e two-s ided. T he m inim um number of independent biological replicate experim ents was a–f n = 3. T he experiments wer e conducted three tim es, each iteration producing consistent results.

[3] = mean from t test output, scale differs from set1-set3 values
[4] = vs. P1, ± SEM, unpaired t test, df=4

## KKKWCRKKKSSADEKRYRALKRTAERELLMNA [P8]
[1]; [3]
  DLK1 FACS, mean: 8315
  LHX2 FACS, mean: 9545
  SOX1 FACS, mean: 5506
[1]; [4]
  DLK1 FACS, difference between means ± SEM: 1682 ± 236.3
  LHX2 FACS, difference between means ± SEM: 3433 ± 333.3
  SOX1 FACS, difference between means ± SEM: -2997 ± 246.0
[2]; Day 0, replicate 1, Fig. s7e
  CXCR4 (RT-qPCR): 1.088
  FOXA1 (RT-qPCR): 1.247
[2]; Day 0, replicate 2, Fig. s7e
  CXCR4 (RT-qPCR): 0.7848
  FOXA1 (RT-qPCR): 1.413
[2]; Day 0, replicate 3, Fig. s7e
  CXCR4 (RT-qPCR): 1.127
  FOXA1 (RT-qPCR): 0.3396
[2]; Day 3, replicate 1, Fig. s7e
  CXCR4 (RT-qPCR): 70.9428
  FOXA1 (RT-qPCR): 74.3757
[2]; Day 3, replicate 2, Fig. s7e
  CXCR4 (RT-qPCR): 396.929
  FOXA1 (RT-qPCR): 54.052
[2]; Day 3, replicate 3, Fig. s7e
  CXCR4 (RT-qPCR): 186.896
  FOXA1 (RT-qPCR): 82.1532
[2]; Day 5, replicate 1, Fig. s7e
  CXCR4 (RT-qPCR): 166.399
  FOXA1 (RT-qPCR): 512.006
[2]; Day 5, replicate 2, Fig. s7e
  CXCR4 (RT-qPCR): 221.471
  FOXA1 (RT-qPCR): 494.768
[2]; Day 5, replicate 3, Fig. s7e
  CXCR4 (RT-qPCR): 55.5295
  FOXA1 (RT-qPCR): 555.597
[2]; CXCR4 day 3
  Difference between means (B - A) ± SEM: -395.9 ± 135.2
[2]; CXCR4 day 3, mean of n = 3, Fig. s7e
  Mean CXCR4 (RT-qPCR): 218.3
[2]; CXCR4 day 5
  Difference between means (B - A) ± SEM: -733.3 ± 94.11
[2]; CXCR4 day 5, mean of n = 3, Fig. s7e
  Mean CXCR4 (RT-qPCR): 147.8
[2]; FOXA1 day 5
  Difference between means (B - A) ± SEM: 207.3 ± 47.14
[2]; FOXA1 day 5, mean of n = 3, Fig. s7e
  Mean FOXA1 (RT-qPCR): 520.8
[2]; Fig. s7b, mesoderm, day 4, P8 vs. P1
  SOX2 difference between means (P8 - P1) ± SEM: 0.07995 ± 0.0229
[2]; Fig. s7b, mesoderm, day 4, mean of 3 replicates
  SOX2 mRNA level (RT-qPCR), mean: 0.08192
[2]; Day 0, replicate 1
  BMP2 mRNA level (RT-qPCR): 0.8054
  BMP4 mRNA level (RT-qPCR): 1.545
  CDH2 mRNA level (RT-qPCR): 1.016
  CXCR4 mRNA level (RT-qPCR): 0.9995
  SNAI1 mRNA level (RT-qPCR): 1.4406
  TBXT mRNA level (RT-qPCR): 1.3
[2]; Day 0, replicate 2
  BMP2 mRNA level (RT-qPCR): 1.199
  BMP4 mRNA level (RT-qPCR): 0.6508
  CDH2 mRNA level (RT-qPCR): 0.7569
  CXCR4 mRNA level (RT-qPCR): 1.121
  SNAI1 mRNA level (RT-qPCR): 0.9418
  TBXT mRNA level (RT-qPCR): 0.8652
[2]; Day 0, replicate 3
  BMP2 mRNA level (RT-qPCR): 0.9954
  BMP4 mRNA level (RT-qPCR): 0.8046
  CDH2 mRNA level (RT-qPCR): 1.227
  CXCR4 mRNA level (RT-qPCR): 0.8798
  SNAI1 mRNA level (RT-qPCR): 0.6176
  TBXT mRNA level (RT-qPCR): 0.8351
[2]; Day 3, replicate 1
  BMP2 mRNA level (RT-qPCR): 1.1089
  BMP4 mRNA level (RT-qPCR): 41.4056
  CDH2 mRNA level (RT-qPCR): 19.486
  CXCR4 mRNA level (RT-qPCR): 784.151
  SNAI1 mRNA level (RT-qPCR): 12.8862
  TBXT mRNA level (RT-qPCR): 3854.3
[2]; Day 3, replicate 2
  BMP2 mRNA level (RT-qPCR): 1.096
  BMP4 mRNA level (RT-qPCR): 50.4784
  CDH2 mRNA level (RT-qPCR): 21.455
